Experimental data taken from patent US20250163057A1, “DCN-1 MODULATING COMPOUNDS AND METHODS OF USE THEREOF” (Cellarity, Inc., priority 2023, published 2025).
Read-outs that look alike come from different tables or passages of the source.

Legend:
[1] = tested on: Cullin-3 (CUL3) neddylation; test: AlphaLISA assay for Cullin-3 (CUL3) neddylation in TF 1 cells; type: cell-based; settings: Homo sapiens, 3 hours treatment
Outline: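 TF 1 cells in unsupplemented IMDM treated with compound concentrations for 3 h, then lysed. CUL3 neddylation detected by AlphaLISA (biotinylated anti-NEDD8, anti-CUL3 acceptor beads overnight, streptavidin donor beads 1 h); normalized to vehicle (0%) and 1 μM DI-1548 (100%), IC50 from Hill fits.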

[2] = molecular target: DCN1 (DCUND1) protein PONY domain (Homo sapiens (Human), UniProt Q96GG9); test: TR-FRET assay, DCN1 binding with FAM-labeled probe
Outline: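 TR-FRET ratio (Tb-DCN1 to FAM-probe) read at 1, 5 and 24 hrs after compound addition. Protein: recombinant PONY domain from E. coli, biotinylated and coupled to streptavidin terbium. Either 5 nM DCN1 with 20 nM FAM-probe, or 0.31 nM DCN1 with 100 nM FAM-labelled plus 800 nM unlabelled probe.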

[3] = 24 hr after treatment with compound, read-out: TR FRET IC50 24 hr
[4] = read-out: TR FRET IC50 1 hr, 1 hr after treatment with compound
[5] = TR FRET IC50 1 hr (nM), 1 hr after treatment with compound

Sequence of DCN1 (DCUND1) protein PONY domain (Q96GG9 60-248): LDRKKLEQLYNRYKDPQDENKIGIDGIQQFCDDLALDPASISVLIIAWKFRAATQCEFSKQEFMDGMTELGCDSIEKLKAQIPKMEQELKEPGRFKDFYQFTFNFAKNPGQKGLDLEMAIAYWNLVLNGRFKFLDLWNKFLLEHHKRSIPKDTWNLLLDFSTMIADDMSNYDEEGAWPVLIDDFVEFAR

Structure (SMILES) | IC50 ([1]; TF-1, 3 h) [nM] | IC50 [2, 3] [nM] | IC50 [2, 4] [nM] | IC50 [1] [nM] | IC50 [2, 5] [nM]
CCN1C(=O)[C@@H](NC(=O)c2cccc(C(F)(F)F)c2)[C@@H](c2ccc(F)cc2)c2c(C(=O)N3CS(=O)(=O)C[C@H]3C#N)nn(-c3ccccc3)c21 [Compound I-465] | ≤ 100 | ≤ 200 | ≤ 200 | – | –
CCN1C(=O)[C@@H](NC(=O)c2csc3c2CCC(C)C3)[C@@H](C2CC2)c2c(C(=O)N3[C@H](C#N)C[C@H]4C[C@H]43)nn(C3CCOCC3)c21 (stereo partly drawn) [Compound I-656] | – | ≤ 200 | ≤ 200 | ≤ 100 | –
CCN1C(=O)[C@@H](NC(=O)c2cccc(C(F)(F)F)c2)[C@@H](C2CC2)c2c(C(=O)N(CC#N)C3CC3)nn(-c3ccccc3)c21 [Compound I-619] | 100 to 1000 | ≤ 200 | – | – | 1000 to 3000
CCN1C(=O)[C@H](NC(=O)c2cccc(C(F)(F)F)c2)[C@@H](c2ccc(F)cc2)c2c(C3(NC#N)CC3)nn(-c3ccccc3)c21 (racemic) [Compound I-84] | > 1000 | 1000 to 3000 | – | – | 1000 to 3000
CCN1C(=O)[C@H](NC(=O)c2cccc(C(F)(F)F)c2)C(C2CC2)c2c(C(=O)N3CCC[C@H]3C#N)nn(-c3ccccc3)c21 (stereo partly drawn) [Compound I-642] | > 1000 | 1000 to 3000 | – | – | 1000 to 3000
CCN1C(=O)[C@@H](NC(=O)Cc2ccccc2)[C@@H](C2CC2)c2c(C(=O)N3[C@H](C#N)C[C@H]4C[C@H]43)nn(C3CCOCC3)c21 [Compound I-595] | > 1000 | 1000 to 3000 | – | – | 1000 to 3000
CCN1C(=O)[C@@H](NC(=O)c2nccc(C(F)(F)F)n2)[C@H](c2ccc(F)cc2)c2c(CNC(=O)CC#N)nn(-c3ccccc3)c21 [Compound I-452, N-((4R,5S)-3-((2-cyanoacetamido)methyl)-7-ethyl-4-(4-fluorophenyl)-6-oxo-1-phenyl-4,5,6,7-tetrahydro-1H-pyrazolo[3,4-b]pyridin-5-yl)-4-(trifluoromethyl)pyrimidine-2-carboxamide] | > 1000 | 1000 to 3000 | – | – | 1000 to 3000
CCN1C(=O)[C@@H](NC(=O)c2cccc(C(F)(F)F)c2)[C@@H](c2ccc(F)cc2)c2c([C@H](CCCO)NC#N)nn(-c3ccccc3)c21 [Compound I-489] | ≤ 100 | ≤ 200 | – | – | 200 to 1000
CCN1C(=O)[C@@H](NC(=O)c2ccc3cc[nH]c3c2)[C@@H](C2CC2)c2c(C(=O)N3[C@H](C#N)C[C@H]4C[C@H]43)nn(C3CCOCC3)c21 [Compound I-667] | ≤ 100 | ≤ 200 | – | – | 200 to 1000
CCN1C(=O)[C@@H](NC(=O)c2ccn(C(F)F)n2)[C@@H](C2CC2)c2c(C(=O)N3[C@H](C#N)C[C@H]4C[C@H]43)nn(C3CCOCC3)c21 [Compound I-432] | 100 to 1000 | ≤ 200 | – | – | 200 to 1000
CCN1C(=O)[C@@H](NC(=O)c2cccc(C(F)(F)F)c2)[C@@H](c2ccc(F)cc2)c2c(C(=O)N3CCC=C3C#N)nn(C3CCOCC3)c21 [Compound I-631, N-((4S,5S)-3-(5-cyano-2,3-dihydro-1H-pyrrole-1-carbonyl)-7-ethyl-4-(4-fluorophenyl)-6-oxo-1-(tetrahydro-2H-pyran-4-yl)-4,5,6,7-tetrahydro-1H-pyrazolo[3,4-b]pyridin-5-yl)-3-(trifluoromethyl)benzamide] | 100 to 1000 | ≤ 200 | – | – | 200 to 1000
CCN1C(=O)[C@@H](NC(=O)c2cccc(C(F)(F)F)c2)[C@@H](c2ccc(F)cc2)c2c(CN3C(=O)CC[C@H]3C#N)nn(-c3ccccc3)c21 [Compound I-622, N-((4S,5S)-3-(((S)-2-cyano-5-oxopyrrolidin-1-yl)methyl)-7-ethyl-4-(4-fluorophenyl)-6-oxo-1-phenyl-4,5,6,7-tetrahydro-1H-pyrazolo[3,4-b]pyridin-5-yl)-3-(trifluoromethyl)benzamide] | > 1000 | 1000 to 3000 | – | – | 1000 to 3000
CCN1C(=O)[C@@H](NC(=O)c2cccc(C(F)(F)F)c2)[C@@H](C2CC2)c2c(C(=O)N(C)[C@@H](C#N)CCN(C)C3COC3)nn(C3CCOCC3)c21 [Compound I-664] | 100 to 1000 | 200 to 1000 | – | – | 200 to 1000
